Data set [1] concerns DA rat model of chronic-protracted EAE. Kind of data set: Optic neuritis in the DA rat model of chronic-protracted EAE. In kind it is in vivo. Particulars: for disease progression (clinical EAE): 0.3 mg/kg p.o. once a day for 2 weeks, therapeutic treatment from about day 12, compared to vehicle-treated controls; for development of EAE symptoms / disease-related weight loss: suboptimal dose <0.1 mg/kg p.o. combined with a mTOR inhibitor (<1 mg/kg p.o.), therapeutic dosing. From the text:
A.2 In Vivo: Optic Neuritis in the DA Rat Model of Chronic-Protracted EAE
Ocular pathologic manifestations such as optic neuritis (neuromyelitis optica) are frequent in multiple sclerosis and often precede or accompany plaque formation in the brain white matter. Ocular areas, especially the optic chiasma, also are important targets in demyelinating forms of EAE. In such EAE models, functional disability caused by demyelination of the optic nerve can be assessed by electrophysiological methods, such as visual evoked cortical potentials and electroretinogram, in conjunction with morphological analysis of the ocular tissue.
Immunization: On day 0, female DA rats are immunized by a single intradermal injection at the tail base with 100-200 μl inoculum containing a recombinant encephalitogenic peptide, e.g. myelin oligodendrocyte glycoprotein, or a homogenate of syngeneic central nervous system tissue emulsified in one part CFA (volume:volume). Neurologic symptoms develop by 10 days post-immunization, and clinical grades of EAE are assessed using a scale of 0 to 4. Therapeutic treatment with the test compound starts when the disease is fully established, usually on day 12, and continues for 2 weeks.

Data set [2] relates to SJL/J mouse model of chronic progressive EAE. Kind of data set: SJL/J mouse model of chronic progressive EAE. In kind it is in vivo. As for the experimental part: A.1 In Vivo: SJL/J Mouse Model of Chronic Progressive EAE
The disease course in this animal model shares some common features with SP- and PR-MS. Immunization: On day 0 female SJL/J mice are immunized (subcutaneous flank injection) with 200 μl inoculum containing 500 μg bovine myelin basic protein (MBP) emulsified in complete Freund's adjuvant (CFA). On day 9 mice are boosted by a second MBP injection and an additional intravenous adjuvant injection consisting of 200 ng B. pertussis toxin. A final Pertussis injection is given on day 11. […] This is followed by a recovery phase starting around day 25, during which time mice remain symptom-free for about 20 days. Subsequently, by days 45-47, approximately 50% of the animals go into the progressive phase of the disease. Therefore, therapeutic treatment with test compounds starts on day 21 when the disease is fully established and continues until day 70, unless stated otherwise. Recombinant mouse interferon β (INFβ Calbiochem/Biosciences) is dissolved in saline and given by intraperitoneal injection 3× per week. Compound (a), e.g. Compound A or B, is diluted in water and given p.o. 5× per week by gavage. Mice in the vehicle control group are MBP-immunized and treated with water.
Each experimental group consists of 10 mice, which are examined daily for clinical EAE symptoms. Disease incidence and the day of EAE onset also are recorded. Clinical grades of EAE are assessed using a scale from 0 to 3. Any disease-related mortality which occurs after starting drug treatment is recorded with a maximum score of 3.

Data set [3] has as its system Lewis rat model of EAE. Kind of data set: Lewis rat model of EAE, prophylactic treatment regimen. The format is in vivo. As to conditions: combination with a mTOR inhibiter at similar doses, EAE induced by intradermal guinea pig neuroantigen.
The nature of data set [4]: Acute toxicity (LD50) in rats. As to conditions: rat, in vivo, po.
A short description of data set [5]: Acute toxicity (LD50) in monkeys. As to conditions: monkey, in vivo, po.
[6] abbreviates: 0.6 mg/kg p.o. 5x per week in combination with INFβ (10 000 IU i.p. 3x per week), therapeutic treatment from day 21, days 45-75, compared to vehicle-treated controls.

The term LD50 denotes the dose at which mortality reaches 50%. The low end stands for a more toxic substance, the high end for a less toxic substance.

Turning to `NC(CO)(CO)CCc1ccc(C(=O)CCCCc2ccccc2)cc1` [Compound B, 2-amino-2-{2-[4-(1-oxo-5-phenylpentyl)phenyl]ethyl}propane-1,3-diol], in data set [1], the “disease progression (clinical EAE)” value is recorded as “prevents disease progression for at least 2 months”, the “development of EAE symptoms” value is on record as “curtail development of EAE symptoms” and the disease-related weight loss result is given as “prevent disease-related weight loss”. Moreover, the “disease progression (clinical EAE)” value in data set [2] (setting [6]) is given as “prevents disease progression for one month”. In addition, the disease onset result in data set [3] is reported as “prevent disease onset”.
Turning to `CCCCCCCCc1ccc(CCC(N)(CO)CO)cc1.Cl` [Compound A, 2-amino-2-[2-(4-octylphenyl)ethyl]propane-1,3-diol], the 50% lethal dose (LD50) in data set [4] and in data set [5] was over 10 mg/kg each time. Further, the “disease progression (clinical EAE)” value in data set [1] was “prevents disease progression for at least 2 months”; in data set [2] (setting [6]), “prevents disease progression for one month”. The “development of EAE symptoms” value in data set [1] is reported as “curtail development of EAE symptoms”. In addition, in data set [1], the disease-related weight loss result is given as “prevent disease-related weight loss”. In addition, the disease onset result in data set [3] is reported as “prevent disease onset”.

B1: INFβ: Recombinant mouse interferon β (Calbiochem/Biosciences), dissolved in saline, given by intraperitoneal injection (protein, UniProt P01575 22-182, looked up)
Interferon beta: INYKQLQLQERTNIRKCQELLEQLNGKINLTYRADFKIPMEMTEKMQKSYTAFAIQEMLQNVFLVFRNNFSSTGWNETIVVRLLDELHQQTVFLKTVLEEKQEERLTWEMSSTALHLKSYYWRVQRYLKLMKYNSYAWMVVRAEIFRNFLIIRRLTRNFQN
On to B1, for which, in data set [2] (INFβ alone, 10 000 IU 3x/week i.p., afterwards full EAE response indistinguishable from vehicle-treated controls by day 68 onwards), the “disease progression (clinical EAE)” value is “only marginally inhibits disease progression for about 1 week”.

The values are drawn from patent publication US20120225031A1, “SPHINGOSINE-1-PHOSPHATE RECEPTOR AGONISTS IN THE TREATMENT OF DEMYELINATING DISORDERS” (priority 2002, published 2012).
